From paper PMC5602100, “Retro analog concept: comparative study on physico-chemical and biological properties of selected antimicrobial peptides” (Amino Acids, 2017)
Like-named read-outs stand apart in the source and are kept apart here. Ends that are not written are not given here.

Experiments:
S. aureus ATCC 9144 = tested on: S. aureus ATCC 9144
Method: (§1) The minimal inhibitory concentrations (MICs) for bacteria and fungi were determined by the broth microdilution method according to the Clinical and Laboratory Standards Institute (CLSI) protocol (Clinical and Laboratory Standards Institute (CLSI) [2002], [2012]). For this purpose, the initial inoculums of bacteria (5 × 10^5 CFU/mL) in Mueller–Hinton Broth (Biocorp, Warsaw, Poland) were exposed to the ranging concentrations of compounds (0.125–256 µg/mL) and incubated for 18 h at 37 °C. In case of fungi, the initial inoculums of 2 × 10^3 CFU/mL in RPMI-1640 (Sigma-Aldrich, Steinheim, Germany) were exposed to the ranging concentrations of compounds (0.5–256 µg/mL) and incubated for 24 h at 37 °C. The experiments were conducted on 96-well microtiter plates, with the final volume of 100 µL. Cell densities were adjusted spectrophotometrically (Multiskan™ GO Microplate Spectrophotometer, Thermo Scientific) at the wavelengths of 600 nm for bacteria and 530 nm for fungi. The MIC was taken as the lowest drug concentration at which a noticeable growth of microorganisms was inhibited. Reference strains of bacteria: Escherichia coli ATCC 25922, E. coli ATCC 23506, Enterococcus faecalis PCM 2673, Klebsiella pneumoniae ATCC 700603, Pseudomonas aeruginosa ATCC 9027, Staphylococcus aureus ATCC 25923, S. aureus 9144, Streptococcus pneumoniae ATCC 49619, and fungi: Aspergillus niger ATCC 16404, Candida albicans ATCC 10231, and C. glabrata ATCC 15126 were obtained from Polish Collection of Microorganisms (PCM, Polish Academy of Sciences, Wroclaw, Poland) and from American Type Culture Collection (ATCC). All experiments were conducted in triplicate.

P. aeruginosa ATCC 9027 = tested on: P. aeruginosa ATCC 9027
Method: as §1

E. faecalis PCM 2673 = tested on: E. faecalis PCM 2673
Method: as §1

S. pneumoniae ATCC 49619 = tested on: S. pneumoniae ATCC 49619
Method: as §1

E. coli ATCC 23506 = tested on: E. coli ATCC 23506
Method: as §1

[1] = tested on: K. pneumoniae ATCC 700603
Method: as §1

C. glabrata ATCC 15126 = tested on: C. glabrata ATCC 15126
Method: as §1

S. aureus ATCC 25923 = tested on: S. aureus ATCC 25923
Method: as §1

A. niger ATCC 16404 = tested on: A. niger ATCC 16404
Method: as §1

C. albicans ATCC 10231 = tested on: C. albicans ATCC 10231
Method: as §1

E. coli ATCC 25922 = tested on: E. coli ATCC 25922
Method: as §1

[2] = tested on: human red blood cells (RBCs); test: Hemolysis assay; assay type: cell-based; settings: fresh human RBCs 4% (v/v) in PBS, 60 min at 37 °C, absorbance 540 nm, 100% control 1% Triton-X 100, triplicate
Method: The hemolysis assay was conducted according to the procedure described previously in the literature (Avrahami and Shai [2004]). Fresh human red blood cells (RBCs) with EDTA as anticoagulant were rinsed three times with a phosphate-buffer saline (PBS) by centrifugation at 800×g for 10 min and resuspended in PBS. Serial dilution of peptides (1–512 µg/mL) was conducted in PBS on 96-well plates. Then the stock solution of RBCs was added to reach a final volume of 100 µL with a 4% concentration of erythrocytes (v/v). The control wells for 0 and 100% hemolysis consisted of RBCs suspended in PBS and 1% of Triton-X 100, respectively. Subsequently, the plates were incubated for 60 min at 37 °C and then centrifuged at 800×g for 10 min at 4 °C (Sorvall ST 16R Centrifuge, Thermo Scientific). After centrifugation the supernatant was carefully […] to new microtiter plates and the release of hemoglobin was monitored by measurement of absorbance at 540 nm (Multiskan™ GO Microplate Spectrophotometer, Thermo Scientific). All experiments were conducted in triplicate.

[3] = broth microdilution (CLSI), 5 × 10^5 CFU/mL in Mueller–Hinton Broth, 0.125–256 µg/mL, 18 h at 37 °C, triplicate
[4] = broth microdilution (CLSI), 2 × 10^3 CFU/mL in RPMI-1640, 0.5–256 µg/mL, 24 h at 37 °C, triplicate

| Substance | MIC, S. aureus ATCC 9144 (S. aureus ATCC 9144; ATCC 9144, 18 h) | MIC, P. aeruginosa ATCC 9027 (P. aeruginosa ATCC 9027; ATCC 9027, 18 h) | MIC, E. faecalis PCM 2673 (E. faecalis PCM 2673; PCM 2673, 18 h) | MIC, S. pneumoniae ATCC 49619 (S. pneumoniae ATCC 49619; ATCC 49619, 18 h) | MIC, E. coli ATCC 23506 (E. coli ATCC 23506; ATCC 23506, 18 h) | MIC, K. pneumoniae ATCC 700603 [1, 3] | MIC, C. glabrata ATCC 15126 (C. glabrata ATCC 15126; [4]) | MIC, S. aureus ATCC 25923 (S. aureus ATCC 25923; ATCC 25923, 18 h) | MIC, A. niger ATCC 16404 (A. niger ATCC 16404; [4]) | MIC, C. albicans ATCC 10231 (C. albicans ATCC 10231; [4]) | MIC, E. coli ATCC 25922 (E. coli ATCC 25922; ATCC 25922, 18 h) | MIC, K. pneumoniae ATCC 700603 ([1]; ATCC 700603, 18 h) | MIC, C. glabrata ATCC 15126 (C. glabrata ATCC 15126; ATCC 15126, 24 h) | MIC, A. niger ATCC 16404 (A. niger ATCC 16404; ATCC 16404, 24 h) | MIC, C. albicans ATCC 10231 (C. albicans ATCC 10231; ATCC 10231, 24 h) | MIC, S. aureus ATCC 9144 (S. aureus ATCC 9144; [3]) | MIC, P. aeruginosa ATCC 9027 (P. aeruginosa ATCC 9027; [3]) | MIC, E. faecalis PCM 2673 (E. faecalis PCM 2673; [3]) | MIC, S. pneumoniae ATCC 49619 (S. pneumoniae ATCC 49619; [3]) | MIC, E. coli ATCC 23506 (E. coli ATCC 23506; [3]) | other results |
| --- | --- | --- | --- | --- | --- | --- | --- | --- | --- | --- | --- | --- | --- | --- | --- | --- | --- | --- | --- | --- | --- |
| ILRWPWWPWRRK-NH2 [omiganan] | 16 mg/L | 16 mg/L | 16 mg/L | 8 mg/L | 32 mg/L | 8 mg/L | 128 mg/L | 16 mg/L | 64 mg/L | 128 mg/L | 16 mg/L |  |  |  |  |  |  |  |  |  |  |
| KKLIKVFAKGFKKAKKLFKGIG-NH2 [r-pexiganan] | 64 mg/L | 2 mg/L | 64 mg/L | 4 mg/L | 2 mg/L |  |  | 128 mg/L |  |  | 8 mg/L | 0.25 mg/L | 128 mg/L | 32 mg/L | 256 mg/L |  |  |  |  |  |  |
| KWKLFKKIGAVLKVL-NH2 [CAMEL] |  |  |  |  |  | 0.125 mg/L | 64 mg/L |  | 16 mg/L | 32 mg/L |  |  |  |  |  | 4 mg/L | 2 mg/L | 8 mg/L | 0.5 mg/L | 1 mg/L | MIC, S. aureus ATCC 25923 (S. aureus ATCC 25923; [3]): 4 mg/L; MIC, E. coli ATCC 25922 (E. coli ATCC 25922; [3]): 2 mg/L |
| LGGIVSAVKKIVDFLG-NH2 [r-citropin 1.1] | 64 mg/L |  | 128 mg/L | 128 mg/L | 128 mg/L |  |  | 64 mg/L |  |  | 64 mg/L | 32 mg/L | 256 mg/L | 256 mg/L | 128 mg/L |  |  |  |  |  |  |
| LIGSLVRGILPLF-NH2 [r-temporin A] | 64 mg/L | 256 mg/L | 256 mg/L | >256 mg/L | 256 mg/L |  |  | 64 mg/L |  |  | 256 mg/L | 128 mg/L | >256 mg/L | 256 mg/L | 256 mg/L |  |  |  |  |  |  |
| LVKLVAGIKKFLKWK-NH2 [r-CAMEL] |  |  |  |  |  | 2 mg/L | >256 mg/L |  | 256 mg/L | 256 mg/L |  |  |  |  |  | 64 mg/L | 8 mg/L | 64 mg/L | 128 mg/L | 64 mg/L | MIC, S. aureus ATCC 25923 (S. aureus ATCC 25923; [3]): 128 mg/L; MIC, E. coli ATCC 25922 (E. coli ATCC 25922; [3]): 128 mg/L; rate of hemolysis at MIC concentrations [2]: below 10% |
